Assay results from doi:10.1101/2025.08.13.670122v1 (bioRxiv, 2025).

Experiments:
AT1R [1] = target: T1, AT1R (Homo sapiens, UniProt P30556); test: 125I-AngII displacement binding on HEK293 cells expressing human AT1R; set-up: expressed in transfected cells; host or cells: HEK293 cells, transient; freeze-thaw broken cells; details: SEM; read-out: Ki (apparent affinity)
T1 sequence (P30556 1-359): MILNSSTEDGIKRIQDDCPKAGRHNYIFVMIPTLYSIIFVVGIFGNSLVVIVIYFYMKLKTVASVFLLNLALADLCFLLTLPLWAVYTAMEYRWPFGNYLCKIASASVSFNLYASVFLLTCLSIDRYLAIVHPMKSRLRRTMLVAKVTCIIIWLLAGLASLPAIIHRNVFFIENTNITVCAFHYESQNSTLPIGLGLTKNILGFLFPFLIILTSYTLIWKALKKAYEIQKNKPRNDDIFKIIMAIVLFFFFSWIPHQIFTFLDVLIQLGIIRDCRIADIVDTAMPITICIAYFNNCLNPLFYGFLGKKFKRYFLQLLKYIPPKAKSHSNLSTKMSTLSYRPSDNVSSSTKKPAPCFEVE
Procedure: HEK293 cells, transiently expressing the human AT1R (3 million cells transfected with 4 μg of AT1R plasmid), were washed once with PBS and submitted to one freeze-thaw cycle. […] Binding assays were carried out in 96-well plates. […] The incubation mixtures were filtered through binding plates (MultiScreen HTS, Merck Millipore, Cork, Ireland) and preincubated with the washing buffer for 1 h at 4°C to remove unbound ligands. The filtered membranes were washed thrice with 200 µL cold binding buffer (4°C). The filters with membranes were retrieved with punch tips (Filter Plates Punch Tips, Merck Millipore, Cork, Ireland). […] The dissociation constant (Ki value) was determined from the IC50 using the Cheng-Prusoff equation and presented as a mean ± SEM of three independent experiments, each conducted in duplicate. VSMC cells were seeded at 80,000 cells per well in poly-ornithine-coated 24-wells. […] The next day, cells were washed thrice with ice-cold PBS, solubilized in 0.5 mL of 0.2 M NaOH/0.05% SDS, and bound radioactivity was counted using a PerkinElmer Wizard 1470 automatic γ-counter. Protein quantities were evaluated using a Bradford assay.

AT1R [2] = target: T1, AT1R; test: β-arrestin2 recruitment BRET (β-arrestin2-RLucII/rGFP-CAAX) in HEK293 cells expressing AT1R; assay type: cell-based; set-up: expressed in transfected cells; host or cells: HEK293 cells, transient PEI transfection; details: for Emax βarr2 (% AngII): HEK293/AT1R, β-arrestin2 BRET, response of the ligand at 10 μM, normalised to AngII; for EC50: HEK293 cells transiently expressing AT1R, β-arrestin2-RLucII/rGFP-CAAX BRET, read 10 min after ligand, mean ± SEM of at least three to five independent experiments, SEM, read-out: EC50 βarr2
From the text: We utilized a clonal cell line HEK293, referred to hereafter as HEK293 cells, which has been previously described.[7],[8] As a gracious gift from A. Inoue (Tohoku University, Sendai, Miyagi, Japan), CRISPR Gαq/11 and Gα12/13 knockout cell lines (ΔGq/11 and ΔG12/13, respectively), were derived as previously explained.[48] In brief, a CRISPR-Cas9 system was used to target either GNAQ and GNA11 or GNA12 and GNA13 genes in HEK293T cells simultaneously to generate the Gαq/11 and Gα12/13 knockout cell lines. For the production of adenovirus, we utilized HEK293A cells. All cells were grown in DMEM supplemented with 10% FBS and Penicillin-Streptomycin-L-Glutamine (10000 IU penicillin, 10000 µg/mL Streptomycin, 200 mM L-Glutamine) at 37°C in T175 flasks under a 5% CO2 humidified chamber. Periodic testing was carried out for mycoplasma contamination (ABM™, Mycoplasma PCR Detection kit). For all biosensors used, cells underwent transfection with the PEI reagent, employing a PEI:DNA ratio of 3:1. For the Gαq biosensor, HEK293 cells were transfected with the plasmids coding for Gαq-RLucII (120 ng), Gβ1 (3000 ng), Gγ1-GFP10 (3000 ng), human AT1 (3000 ng) and Salmon sperm DNA (SSD) (880 ng). For the β-arrestin2 recruitment assay, HEK293 cells were transfected with the plasmids coding for 120 ng β-arrestin-2-RLucII, 3000 ng AT1, 3000 ng rGFP-CAAX, and 3880 ng SSD. For the measurement of PKC, HEK293 cells were transfected with 3000 ng AT1, 600 ng PKC-c1b, and 6400 ng SSD. […] 100 µL of the cell/DNA mixture was added to white 96-well plates and incubated at 37°C at 5% CO2 for 48 h. For the Rho assay, ΔG12/13 cells were seeded at a density of 9,000 cells per well in poly-ornithine-coated white 96-well plates and transfected the following day. In brief, 1 μg of total DNA in 100 μL of PBS was mixed with 100 μL of PBS containing 3 μL of 1 mg/mL PEI. For Rho signaling, 150 ng of AT1R DNA with 25 ng of PKN-RBD-RlucII [8], and 100 ng of rGFP-CAAX were used. Empty pcDNA was used to reach 1 µg of the total DNA amount in 100 μL of PBS. The DNA was then mixed with 100 μL of PBS containing 3 μL of 1 mg/mL PEI. After a 20-min incubation, the DNA/PEI complexes were dispensed into cells in 96-well plates (15 µL/well), and the experiment was carried out 48 h post-transfection.
On the day of the experiment, each well was washed with 80 µL of Tyrode’s buffer (140 mM NaCl, 2.7 mM KCl, 1 mM CaCl2, 12 mM NaHCO3, 5.6 mM D-glucose, 0.5 mM MgCl2, 0.37 mM NaH2PO4, 25 mM Hepes (pH 7.4)). This was followed by incubation for 1 h in Tyrode’s buffer at room temperature. For the Gαq, β-arrestin-2, and PKC biosensors used in HEK293 cells, coelenterazine 400A (at a final concentration of 5 μM) was added 10 min before stimulation. Cells were then stimulated with increasing doses of the indicated ligand, and BRET signals were measured using a Tristar2 (Berthold) microplate reader 10 min later. For the PKC and Rho biosensors in VSMCs, and the Rho biosensor in ΔG12/13 cells, cells were similarly stimulated with ligands for 1 min, 1 min 30 s, and 3 min, respectively, before BRET measurement. […] BRET signals were then measured using a Synergy2 (BioTek) microplate reader. The applied filter set was 410/80 nm and 515/30 nm, designed to detect the light emissions of RlucII (Renilla luciferase) (donor) and rGFP (acceptor), respectively.

| Ki (AT1R [1]) | Emax βarr2 (% AngII) (AT1R [2]) | EC50 (AT1R [2]) | SMILES |
| --- | --- | --- | --- |
| 0.23 ± 0.18 nM | 105 % AngII | 0.36 ± 0.1 nM | CC[C@H](C)[C@H](NC(=O)[C@H](Cc1ccc(O)cc1)NC(=O)[C@@H](NC(=O)[C@H](CCCNC(=N)N)NC(=O)[C@@H](N)CC(=O)O)C(C)C)C(=O)N[C@@H](Cc1c[nH]cn1)C(=O)N1CCC[C@H]1C(=O)N[C@@H](Cc1ccc(OC)cc1)C(=O)O [compound 11] |
| 1.4 ± 0.2 nM | 89 % AngII | 2.5 ± 0.4 nM | CC[C@H](C)[C@H](NC(=O)[C@H](Cc1ccc(O)cc1)NC(=O)[C@@H](NC(=O)[C@H](CCCNC(=N)N)NC(=O)[C@@H](N)CC(=O)O)C(C)C)C(=O)N[C@@H](Cc1c[nH]cn1)C(=O)N1CCC[C@H]1C(=O)N[C@@H](Cc1ccc(OCc2ccccc2)cc1)C(=O)O [compound 12] |
